Results from patent publication US8569336B2, “Compounds for the treatment of inflammatory disorders” (priority 2008, dated 2013).
Where two headings read alike, the source gives them in different places.

What was measured:
[1] = target: T1, purified catalytic domain of recombinant human TACE (rhTACEc) (Homo sapiens, UniProt P78536, N452Q/S266A); assay: TACE kinetic assay: cleavage of internally quenched peptide substrate TNF-FRET 2 (Ki); format: biochemical; conditions: TNF-FRET 2 substrate
T1 construct: 6xHis (C); made in house; host or cells: baculovirus/Hi5 insect cells
T1 sequence (P78536 215-477 S266A/N452Q): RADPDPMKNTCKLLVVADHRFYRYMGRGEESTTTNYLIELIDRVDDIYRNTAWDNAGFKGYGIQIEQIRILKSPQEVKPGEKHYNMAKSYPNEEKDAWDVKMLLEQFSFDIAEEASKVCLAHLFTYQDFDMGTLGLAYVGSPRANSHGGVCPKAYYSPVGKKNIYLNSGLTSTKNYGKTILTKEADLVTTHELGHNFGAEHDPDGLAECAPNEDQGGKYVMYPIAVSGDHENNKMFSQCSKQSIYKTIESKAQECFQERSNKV

[2] = test system: TNF-α production from human whole blood; assay: Inhibition of TNF-α production from human whole blood (hWBA), LPS stimulated, ELISA; format: cell-based; conditions: Homo sapiens, TNF-α by ELISA, read-out: hWBA (IC50)
[3] = LPS-stimulated human whole blood
[4] = human whole blood diluted 1:1, LPS stimulated
[5] = 3.5 h, human whole blood diluted 1:1, LPS stimulated, 3.5 h

| SMILES | Ki ([1]; read-out: Ki) [nM] | IC50 [2, 3] [nM] | IC50 [2, 4] [nM] | IC50 [2, 5] [nM] | Ki ([1]; Ki) [nM] |
| --- | --- | --- | --- | --- | --- |
| COc1ccc2c(c1)C(=O)N(C[C@@]1(c3cn4c5c(sc4n3)CN(C)CC5)NC(=O)NC1=O)C2 [Compound 503] | 4.23 | 1830 | – | – | – |
| COc1ccc2c(c1)C(=O)N(C[C@@]1(c3cc4cc(C(=O)N5CCN(C)CC5)c(C)cc4o3)NC(=O)NC1=O)C2 [Compound 2427] | 1.42 | – | 560 | – | – |
| COc1ccc2c(c1F)C(=O)N(C[C@@]1(c3cc4cc5c(c(F)c4o3)CNC5=O)NC(=O)NC1=O)C2 [Compound 2500] | 0.52 | – | 282 | – | – |
| COc1ccc2c(c1)C(=O)N(C[C@@]1(c3cc4nc(-c5cc[nH]n5)ccc4o3)NC(=O)NC1=O)C2 [Compound 2103] | 0.342 | – | – | 375 | – |
| COc1ccc2c(c1)C(=O)N(C[C@@]1(c3cc4nc(-c5cccc(O)c5)ccc4o3)NC(=O)NC1=O)C2 [Compound 1902] | 0.28 | 998 | – | – | – |
| COc1ccc2c(c1)C(=O)N(C[C@@]1(c3cc4cc(NC(N)=O)ccc4o3)NC(=O)NC1=O)C2 [Compound 2221] | 0.099 | – | – | 143 | – |
| COc1ccc2c(c1)C(=O)N(C[C@@]1(c3cc4[nH]c(=O)ccc4o3)NC(=O)NC1=O)C2 [Compound 1946] | 0.37 | 542 | – | – | – |
| COc1ccc2c(c1)C(=O)N(C[C@@]1(c3cc4nc(-c5ccc(OC)nc5)ccc4o3)NC(=O)NC1=O)C2 [Compound 1518] | 0.9 | 1510 | – | – | – |
| COc1ccc2c(c1)C(=O)N(C[C@@]1(c3cc4c(Cl)nc(N)nc4o3)NC(=O)NC1=O)C2 [Compound 2296] | – | – | ≥ 10000 | – | 4.59 |
| COc1ccc2c(c1)C(=O)N(C[C@@]1(c3cc4ccc(C(=O)NC[C@H](C)O)cc4o3)NC(=O)NC1=O)C2 [Compound 2415] | 0.51 | – | 452 | – | – |
| COc1ccc2c(c1)C(=O)N(C[C@@]1(c3cc4cc(CNCC5CCNCC5)ccc4o3)NC(=O)NC1=O)C2 [Compound 2183] | 1.02 | – | – | 526 | – |
| COc1ccc2c(c1)C(=O)N(C[C@@]1(c3cc4c(ccc5sc(C)nc54)o3)NC(=O)NC1=O)C2 [Compound 1739] | 0.071 | 4530 | – | – | – |
| COc1ccc2c(c1)C(=O)N(C[C@@]1(c3cc4nc(N5CCNC5=O)ccc4o3)NC(=O)NC1=O)C2 [Compound 2127] | 0.435 | – | – | 221 | – |
| COc1ccc2c(c1)C(=O)N(C[C@@]1(c3cc4cnc(C5CC5)cc4o3)NC(=O)NC1=O)C2 [Compound 2287] | 0.429 | – | 575 | – | – |
| COc1ccc2c(c1F)C(=O)N(C[C@@]1(c3cc4nc(C5CCNCC5)c(F)cc4o3)NC(=O)NC1=O)C2 [Compound 1323] | 0.08 | 140 | – | – | – |
| COC(=O)c1cnc2cc([C@]3(CN4Cc5ccc(OC)cc5C4=O)NC(=O)NC3=O)oc2c1 [Compound 2458] | 0.518 | – | 841 | – | – |
| COc1ccc2c(c1)C(=O)N(C[C@@]1(c3cc4c(N5CCNC5=O)nccc4o3)NC(=O)NC1=O)C2 [Compound 2292] | 1.32 | – | 485 | – | – |
| COc1ccc2c(c1F)C(=O)N(C[C@@]1(c3ccc(-c4ccc(N)nc4)o3)NC(=O)NC1=O)C2 [Compound 310] | 0.0208 | 244 | – | – | – |
| COc1ccc2c(c1)C(=O)N(C[C@@]1(c3cc4nc(Nc5cncc(F)c5)ccc4o3)NC(=O)NC1=O)C2 [Compound 1731] | 1.32 | 4140 | – | – | – |
| COc1ccc2c(c1F)C(=O)N(C[C@@]1(c3cc4nc(-c5ccnc(N6CCNCC6)c5)ccc4o3)NC(=O)NC1=O)C2 [Compound 1719] | 0.24 | 148 | – | – | – |
| COc1ccc2c(c1)C(=O)N(C[C@@]1(c3ccc(-c4ccc5c(c4)CN(CC4(C)NC(=O)NC4=O)C5=O)cc3)NC(=O)NC1=O)C2 (some centres unmarked) [Compound 2174] | 1.88 | – | – | 617 | – |
| COc1ccc2c(c1)C(=O)N(C[C@@]1(c3cc4cc(-c5cnccc5O)ccc4o3)NC(=O)NC1=O)C2 [Compound 2199] | 1.96 | – | – | 7360 | – |
| COc1ccc2c(c1)C(=O)N(C[C@@]1(c3cc4nc(-c5ccc(F)c(C#N)c5)ccc4o3)NC(=O)NC1=O)C2 [Compound 1507] | 0.7 | 4120 | – | – | – |
| CCN(CC)CCNC(=O)c1ccc2cc([C@]3(CN4Cc5ccc(OC)cc5C4=O)NC(=O)NC3=O)oc2c1 [Compound 2419] | 0.79 | – | 332 | – | – |
| COc1ccc2c(c1)C(=O)N(C[C@@]1(c3cc4cc(-c5ccc(N)nc5)ccc4o3)NC(=O)NC1=O)C2 [Compound 2202] | 0.488 | – | – | 713 | – |
| COc1ccc2c(c1)C(=O)N(C[C@@]1(c3cc4c(-c5cccc(C#N)c5)nccc4o3)NC(=O)NC1=O)C2 [Compound 2430] | 0.72 | – | 10000 | – | – |
| COc1ccc2c(c1)C(=O)N(C[C@@]1(c3cc4cc(C5CNC(=O)C5)ccc4o3)NC(=O)NC1=O)C2 (some centres unmarked) [Compound 2215] | – | – | – | 381 | 0.524 |
| COc1ccc2c(c1)C(=O)N(C[C@@]1(c3cc4nc(N5CCN(c6ccncc6)CC5)ccc4o3)NC(=O)NC1=O)C2 [Compound 2143] | 0.976 | – | – | 551 | – |

| SMILES | Ki ([1]; read-out: Ki) [nM] | IC50 [2, 3] [nM] | IC50 [2, 4] [nM] | IC50 [2, 5] [nM] | Ki ([1]; Ki) [nM] |
| --- | --- | --- | --- | --- | --- |
| COc1ccc2c(c1)C(=O)N(C[C@@]1(c3cc4nc(Nc5ccncc5)ccc4o3)NC(=O)NC1=O)C2 [Compound 2136] | 0.427 | – | – | 247 | – |
| O=C1NC(=O)[C@](CN2Cc3ccc(O)cc3C2=O)(c2cc3ncccc3o2)N1 [Compound 1735] | – | 3830 | – | – | 1.52 |
| COc1ccc2c(c1)C(=O)N(C[C@@]1(c3cc4nc(NS(C)(=O)=O)ccc4o3)NC(=O)NC1=O)C2 [Compound 1937] | 2.17 | 189 | – | – | – |
| CCN1CCCN(c2ccc3oc([C@]4(CN5Cc6ccc(OC)c(F)c6C5=O)NC(=O)NC4=O)cc3n2)CC1 [Compound 1727] | 0.048 | 154 | – | – | – |
| COc1ccc2c(c1)C(=O)N(C[C@@]1(c3cc4c(o3)CNCC4)NC(=O)NC1=O)C2 [Compound 2266] | 7.83 | – | – | 860 | – |
| COc1ccc2c(c1)C(=O)N(C[C@@]1(c3cc4nc(N5C[C@@H](O)CC5=O)ccc4o3)NC(=O)NC1=O)C2 [Compound 1531] | 0.65 | 125 | – | – | – |
| COc1ccc2c(c1)C(=O)N(C[C@@]1(c3cc4cc(C(=NO)N5CCOCC5)ccc4o3)NC(=O)NC1=O)C2 [Compound 2454] | 0.49 | – | 760 | – | – |
| COc1ccc2c(c1)C(=O)N(C[C@@]1(c3cc4nc(N5CCC(O)CC5)ccc4o3)NC(=O)NC1=O)C2 [Compound 2172] | 0.577 | – | – | 210 | – |
| COc1cc2c(cc1F)CN(C[C@@]1(c3cc4cnccc4o3)NC(=O)NC1=O)C2=O [Compound 2311] | 1.72 | – | 942 | – | – |
| COc1ccc2c(c1)C(=O)N(CC1([C@H]3C[C@@H](c4ccccc4)C3)NC(=O)NC1=O)C2 (some centres unmarked) [Compound 1914] | 26.1 | 100000 | – | – | – |
| COc1ccc2c(c1)C(=O)N(C[C@@]1(c3cc4ccc(C(=O)NCCN5CCCC5)cc4o3)NC(=O)NC1=O)C2 [Compound 2418] | 0.76 | – | 265 | – | – |
| COc1cc2c(cc1OC)C(=O)N(C[C@]1(c3cc4cnccc4o3)NC(=O)NC1=O)C2 [Compound 201] | 149 | 6660 | – | – | – |
| CCN1C[C@@H]2C[C@H]1CN2c1ccc2oc([C@]3(CN4Cc5ccc(OC)c(F)c5C4=O)NC(=O)NC3=O)cc2n1 [Compound 1292] | 0.86 | – | – | 177 | – |
| COc1ccc2c(c1F)C(=O)N(C[C@@]1(c3cc4c(F)cnc(C)c4o3)NC(=O)NC1=O)C2 [Compound 1314] | 1.2 | 727 | – | – | – |
| COc1ccc2c(c1)C(=O)N(C[C@@]1(c3cc4nc(-c5ccnc(N6CCNCC6)c5)ccc4o3)NC(=O)NC1=O)C2 [Compound 1720] | – | 224 | – | – | 0.31 |
| COc1ccc2c(c1)C(=O)N(C[C@@]1(c3cc4cnc(NC5CC5)nc4o3)NC(=O)NC1=O)C2 [Compound 2297] | 0.822 | – | ≥ 1000 | – | – |
| COc1ccc2c(c1)C(=O)N(C[C@@]1(c3cc4c(o3)CCN(CC(N)=O)C4)NC(=O)NC1=O)C2 [Compound 2483] | – | – | 252 | – | 0.7 |
| CCC1(c2ccc3oc([C@]4(CN5Cc6ccc(OC)cc6C5=O)NC(=O)NC4=O)cc3c2)NC(=O)NC1=O (some centres unmarked) [Compound 2208] | 0.249 | – | – | 220 | – |
| COc1ccc2c(c1)C(=O)N(C[C@@]1(c3cc4nc(Nc5ccc(-c6cn[nH]c6)cn5)ccc4o3)NC(=O)NC1=O)C2 [Compound 1732] | 1.91 | 333 | – | – | – |
| COc1ccc2c(c1OC)C(=O)N(C[C@@]1(c3cc4nc(C)c(Br)cc4o3)NC(=O)NC1=O)C2 [Compound 1918] | 2.48 | 34200 | – | – | – |
| CCN1CCN(C(=NO)c2ccc3oc([C@]4(CN5Cc6ccc(OC)cc6C5=O)NC(=O)NC4=O)cc3c2)CC1 [Compound 2453] | 0.51 | – | 393 | – | – |
| COc1ccc2c(c1F)C(=O)N(C[C@@]1(c3cc4nc(-c5cn[nH]c5)ccc4o3)NC(=O)NC1=O)C2 [Compound 2121] | 0.263 | – | – | 102 | – |
| COc1ccc2c(c1)C(=O)N(C[C@@]1(c3cc4cnc(C5=NCCN5)cc4o3)NC(=O)NC1=O)C2 [Compound 2273] | 0.124 | – | – | 747 | – |
| COc1ccc2c(c1)C(=O)N(C[C@@]1(c3cc4nc(N5CCNCC5)ccc4o3)NC(=O)NC1=O)C2 [Compound 2126] | 0.661 | – | – | 194 | – |
| COc1ccc2c(c1)C(=O)N(C[C@@]1(c3cc4cc(C(N)C(F)(F)F)ccc4o3)NC(=O)NC1=O)C2 (some centres unmarked) [Compound 311] | 0.594 | 784 | – | – | – |
| COc1ccc2c(c1Br)C(=O)N(C[C@@]1(c3cc4ncccc4o3)NC(=O)NC1=O)C2 [Compound 1738] | 1.4 | > 10000 | – | – | – |
| COc1ccc2c(c1)C(=O)N(C[C@@]1(c3cc4cc(C(N)=O)ccc4o3)NC(=O)NC1=O)C2 [Compound 2407] | – | – | 162 | – | 0.12 |
